According to article PMC3163001 (Organic letters, 2011):

Target: SylD-CA (Pseudomonas syringae, UniProt Q83Y48)
Test: ATP-PPi radioactivity exchange assay
Format: biochemical
Conditions: reversible adenylation

With `NCC/C=C/[C@H](N)C(=O)O` [L-3,4-dehydrolysine] the “ATP-PPi radioactivity exchange assay” value (preferred substrate of the A domain) was “As expected L-3,4-dhl was preferentially reversibly adenylated”.

For `NCCCC[C@H](N)C(=O)O` [L-lysine], the “ATP-PPi radioactivity exchange assay” value was “L-lysine was reversibly adenylated at a much slower rate”.
